Patent publication US20230114241A1, “METHODS OF TREATING EPILEPSY USING THE SAME” (Trevena, Inc., priority 2019, published 2023)

Columns and labels:
[1] = target: T1, human sphingosine-1-phosphate receptor 1 (S1P1) (Homo sapiens, UniProt P21453); assay: Inhibition of cAMP production (HTRF cAMP HiRange), S1P1 CHO-K1 cells; format: cell-based; conditions: for Emax: CHO-K1, efficacy normalized to maximum efficacy of fingolimod, read-out: hS1P1 CAMP SPAN; for EC50: inhibition of cAMP production, S1P1, read-out: hS1P1 CAMP pEC50 (converted)
Method in brief: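 Intracellular cAMP changes read by TR-FRET (HTRF HiRange, 1 h room temperature) after 30 min compound exposure at 37 °C. Cells: overnight-plated CHO-K1 stably expressing tagged human S1P1 with EA-β-arrestin2. Responses normalized to fingolimod.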
Target sequence in this assay (P21453 whole entry): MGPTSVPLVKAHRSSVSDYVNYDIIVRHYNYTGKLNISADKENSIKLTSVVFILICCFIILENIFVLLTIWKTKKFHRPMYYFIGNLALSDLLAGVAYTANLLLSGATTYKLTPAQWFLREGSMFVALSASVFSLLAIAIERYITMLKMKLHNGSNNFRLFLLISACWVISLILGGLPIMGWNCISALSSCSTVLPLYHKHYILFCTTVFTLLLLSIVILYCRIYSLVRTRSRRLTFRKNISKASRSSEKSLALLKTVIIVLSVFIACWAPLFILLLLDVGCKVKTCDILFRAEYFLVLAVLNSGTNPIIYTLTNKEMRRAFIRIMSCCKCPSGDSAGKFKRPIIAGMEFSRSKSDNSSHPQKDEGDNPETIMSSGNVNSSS

[2] = target: T1, human sphingosine-1-phosphate receptor 1 (S1P1); assay: β-Arrestin2 recruitment assay (PathHunter), S1P1 CHO-K1 cells; format: cell-based; conditions: for Emax: CHO-K1, efficacy normalized to maximum efficacy of fingolimod, read-out: hS1P1 B-arrestin2 SPAN; for EC50: β-arrestin2 recruitment, S1P1, read-out: hS1P1 B-arrestin2 pEC50 (converted)
Method in brief: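 Agonist-driven β-arrestin2 recruitment measured by β-galactosidase complementation after 60 min compound exposure at 37 °C and 1 h detection at room temperature. Cells: stable CHO-K1 line expressing tagged human S1P1 with EA-β-arrestin2, plated the night before. Data expressed relative to fingolimod.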
Target sequence in this assay (P21453 whole entry): as above
Target sequence in this assay (P32121 whole entry partner): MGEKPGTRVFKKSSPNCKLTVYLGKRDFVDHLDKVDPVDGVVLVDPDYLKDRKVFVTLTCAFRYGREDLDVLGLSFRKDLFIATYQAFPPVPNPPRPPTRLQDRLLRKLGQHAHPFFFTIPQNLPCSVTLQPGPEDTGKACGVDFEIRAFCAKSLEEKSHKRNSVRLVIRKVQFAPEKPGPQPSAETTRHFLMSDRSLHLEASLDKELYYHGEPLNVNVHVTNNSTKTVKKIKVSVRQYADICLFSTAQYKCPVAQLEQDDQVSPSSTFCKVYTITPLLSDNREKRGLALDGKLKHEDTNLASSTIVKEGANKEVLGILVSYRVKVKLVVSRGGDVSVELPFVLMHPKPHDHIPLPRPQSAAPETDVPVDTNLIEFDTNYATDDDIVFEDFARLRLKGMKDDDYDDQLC

Row | Emax [1] [%] | EC50 [1] [nM] | Emax [2] [%] | EC50 [2] [nM] | Compound
1 | > 75 | < 316 | < 75 | < 10000 | Cc1cccc2oc(-c3ccc4c(c3)nnn4CC(C)C)nc12 [Compound 447, 2-(1-isobutyl-1H-benzo[d][1,2,3]triazol-5-yl)-4-methyl-benzo[d]oxazole]
2 | > 75 | > 316 | < 75 | > 10000 | Cc1ccc2nc(-c3ccc4c(c3)nnn4CC(C)C)oc2c1 [Compound 448, 2-(1-isobutyl-1H-benzo[d][1,2,3]triazol-5-yl)-6-methyl-benzo[d]oxazole]
3 | > 75 | > 316 | > 75 | > 10000 | Cc1cccc2nc(-c3ccc4c(c3)nnn4CC(C)C)oc12 [Compound 449, 2-(1-isobutyl-1H-benzo[d][1,2,3]triazol-5-yl)-7-methyl-benzo[d]oxazole]
4 | > 75 | < 316 | < 75 | – | CC(C)Cn1nnc2cc(-c3nc4c(Cl)cccc4o3)ccc21 [Compound 453, 4-chloro-2-(1-isobutyl-1H-benzo[d][1,2,3]triazol-5-yl)benzo[d]oxazole]
5 | > 75 | < 316 | > 75 | – | CC(C)Cn1nnc2cc(-c3nc4cccc(Br)c4o3)ccc21 [Compound 454, 7-bromo-2-(1-isobutyl-1H-benzo[d][1,2,3]triazol-5-yl)benzo[d]oxazole]
6 | > 75 | < 316 | > 75 | < 10000 | CC(C)n1nnc2cc(-c3nc(-c4sccc4Cl)co3)ccc21 [Compound 463, 5-[4-(3-chlorothiophen-2-yl)-1,3-oxazol-2-yl]-1-(propan-2-yl)-1H-1,2,3-benzotriazole]
7 | < 75 | < 316 | < 75 | > 10000 | CCC1(CC)CC(=O)c2cc(-c3nc(-c4ccc[nH]4)no3)ccc2O1 [Compound 464, 6-(3-(1H-pyrrol-2-yl)-1,2,4-oxadiazol-5-yl)-2,2-diethylchroman-4-one]
8 | > 75 | < 316 | > 75 | < 10000 | CCC1(CC)CC(=O)c2cc(-c3nc(-c4ccco4)no3)ccc2O1 [Compound 465, 2,2-diethyl-6-(3-(furan-2-yl)-1,2,4-oxadiazol-5-yl)chroman-4-one]
9 | > 75 | > 316 | > 75 | > 10000 | CCC1(CC)CC(=O)c2cc(-c3nc(-c4cnc[nH]4)no3)ccc2O1 [Compound 466, 6-(3-(1H-imidazol-5-yl)-1,2,4-oxadiazol-5-yl)-2,2-diethylchroman-4-one]
10 | > 75 | < 316 | > 75 | < 10000 | CCC1(CC)CC(=O)c2cc(-c3nc(-c4cccs4)no3)ccc2O1 [Compound 467, 2,2-diethyl-6-(3-(thiophen-2-yl)-1,2,4-oxadiazol-5-yl)chroman-4-one]
11 | > 75 | < 316 | > 75 | < 10000 | CCC1(CC)CC(=O)c2cc(-c3nc(-c4ccsc4)no3)ccc2O1 [Compound 468, 2,2-diethyl-6-(3-(thiophen-3-yl)-1,2,4-oxadiazol-5-yl)chroman-4-one]
12 | > 75 | > 316 | > 75 | > 10000 | CCC1(CC)CC(=O)c2cc(-c3nc(-c4ccn[nH]4)no3)ccc2O1 [Compound 470, 6-(3-(1H-pyrazol-5-yl)-1,2,4-oxadiazol-5-yl)-2,2-diethyl-chroman-4-one]
13 | > 75 | < 316 | > 75 | < 10000 | N#Cc1cc(-c2nc(-c3ccc4c(c3)NC(=O)CC4)no2)ccc1NCC1CC1 [Compound 471, 2-((cyclopropyl-methyl)amino)-5-(3-(2-oxo-1,2,3,4-tetrahydroquinolin-7-yl)-1,2,4-oxadiazol-5-yl)benzonitrile]
14 | > 75 | < 316 | > 75 | < 10000 | N#Cc1cc(-c2nc(-c3ccc4c(c3)CCC(=O)N4)no2)ccc1NCC(F)(F)F [Compound 472, 5-[3-(2-oxo-1,2,3,4-tetrahydroquinolin-6-yl)-1,2,4-oxadiazol-5-yl]-2-[(2,2,2-trifluoro-ethyl)amino]benzonitrile]
15 | > 75 | < 316 | > 75 | < 10000 | CC(C)Nc1ccc(-c2nnc(-c3ccc4c(c3)CCC(=O)N4)o2)cc1C#N [Compound 473, 5-[5-(2-oxo-1,2,3,4-tetrahydroquinolin-6-yl)-1,3,4-oxadiazol-2-yl]-2-[(propan-2-yl)amino]benzonitrile]
16 | > 75 | < 316 | < 75 | < 10000 | N#Cc1cc(-c2nnc(-c3ccc4c(c3)CCC(=O)N4)o2)ccc1NCC1CC1 [Compound 475, 2-[(cyclopropyl-methyl)amino]-5-[5-(2-oxo-1,2,3,4-tetrahydroquinolin-6-yl)-1,3,4-oxadiazol-2-yl]benzonitrile]
17 | > 75 | < 316 | < 75 | < 10000 | N#Cc1cc(-c2nnc(-c3ccc4c(c3)CCC(=O)N4)o2)ccc1NCCF [Compound 476, 2-[(2-fluoroethyl)amino]-5-[5-(2-oxo-1,2,3,4-tetrahydroquinolin-6-yl)-1,3,4-oxadiazol-2-yl]benzonitrile]
18 | > 75 | < 316 | < 75 | < 10000 | N#Cc1cc(-c2nnc(-c3ccc4c(c3)CCC(=O)N4)o2)ccc1NCC(F)F [Compound 477, 2-[(2,2-difluoroethyl)amino]-5-[5-(2-oxo-1,2,3,4-tetrahydro-quinolin-6-yl)-1,3,4-oxadiazol-2-yl]benzonitrile]
19 | < 75 | > 316 | < 75 | > 10000 | O=C1CC(CO)(CO)Oc2ccc(-c3nc(-c4cccnc4)no3)cc21 [Compound 478, 2,2-bis(hydroxymethyl)-6-[3-(pyridin-3-yl)-1,2,4-oxadiazol-5-yl]-3,4-dihydro-2H-1-benzopyran-4-one]
20 | < 75 | > 316 | < 75 | > 10000 | O=C1c2cc(-c3nc(-c4cccnc4)no3)ccc2OC(CO)(CO)C1Br (stereo not drawn) [Compound 479, 3-bromo-2,2-bis(hydroxy-methyl)-6-[3-(pyridin-3-yl)-1,2,4-oxadiazol-5-yl]-3,4-dihydro-2H-1-benzopyran-4-one]
21 | > 75 | > 316 | < 75 | > 10000 | CC1(C)Oc2ccc(-c3nc(-c4ccncc4)no3)cc2C1=O [Compound 480, 2,2-dimethyl-5-[3-(pyridin-4-yl)-1,2,4-oxadiazol-5-yl]-2,3-dihydro-1-benzofuran-3-one]
22 | > 75 | > 316 | < 75 | < 10000 | CC1(C)Oc2ccc(-c3nc(-c4cccnc4)no3)cc2C1=O [Compound 481, 2,2-dimethyl-5-[3-(pyridin-3-yl)-1,2,4-oxadiazol-5-yl]-2,3-dihydro-1-benzofuran-3-one]
23 | < 75 | > 316 | > 75 | > 10000 | O=C1CC(CO)(CO)Oc2ccc(-c3nc(-c4ccncc4)no3)cc21 [Compound 482, 2,2-bis(hydroxymethyl)-6-[3-(pyridin-4-yl)-1,2,4-oxadiazol-5-yl]-3,4-dihydro-2H-1-benzopyran-4-one]
24 | > 75 | > 316 | < 75 | > 10000 | O=C1c2cc(-c3nc(-c4ccncc4)no3)ccc2OC(CO)(CO)C1Br (stereo not drawn) [Compound 483, 3-bromo-2,2-bis(hydroxy-methyl)-6-[3-(pyridin-4-yl)-1,2,4-oxadiazol-5-yl]-3,4-dihydro-2H-1-benzopyran-4-one]
25 | > 75 | < 316 | > 75 | < 10000 | CC(C)Nc1ccc(-c2nnc(-c3ccc4[nH]c(=O)oc4c3)o2)cc1C#N [Compound 484, 5-[5-(2-oxo-2,3-dihydro-1,3-benzoxazol-6-yl)-1,3,4-oxadiazol-2-yl]-2-[(propan-2-yl)amino]benzonitrile]
26 | > 75 | < 316 | > 75 | > 10000 | CCC1(CC)CC(=O)c2cc(-c3nc(-c4cc[nH]c4)no3)ccc2O1 [Compound 485, 6-(3-(1H-pyrrol-3-yl)-1,2,4-oxadiazol-5-yl)-2,2-diethylchroman-4-one]
27 | < 75 | < 316 | > 75 | > 10000 | N#Cc1cc(-c2nnc(-c3ccc4[nH]c(=O)oc4c3)o2)ccc1NCC1CC1 [Compound 486, 2-[(cyclopropyl-methyl)amino]-5-[5-(2-oxo-2,3-dihydro-1,3-benzoxazol-6-yl)-1,3,4-oxadiazol-2-yl]benzonitrile]
28 | > 75 | > 316 | > 75 | < 10000 | N#Cc1cc(-c2nnc(-c3ccc4[nH]c(=O)oc4c3)o2)ccc1NCCF [Compound 487, 2-[(2-fluoroethyl)amino]-5-[5-(2-oxo-2,3-dihydro-1,3-benzoxazol-6-yl)-1,3,4-oxadiazol-2-yl]benzonitrile]
29 | < 75 | < 316 | > 75 | < 10000 | N#Cc1cc(-c2nnc(-c3ccc4[nH]c(=O)oc4c3)o2)ccc1NCC(F)F [Compound 488, 2-[(2,2-difluoro-ethyl)amino]-5-[5-(2-oxo-2,3-dihydro-1,3-benzoxazol-6-yl)-1,3,4-oxadiazol-2-yl]benzonitrile]
